18 molecules from patent US20250215029A1 (Recludix Pharma, Inc., priority 2022, published 2025) can be followed below.

In this experiment the target is T1, pY705-STAT3 in PBMC (Homo sapiens, UniProt P40763).
T1 construct: Cryopreserved Peripheral Blood Mononuclear Cells (PBMC) are from AllCells; host or cells: cryopreserved PBMC
T1 sequence (P40763 whole entry): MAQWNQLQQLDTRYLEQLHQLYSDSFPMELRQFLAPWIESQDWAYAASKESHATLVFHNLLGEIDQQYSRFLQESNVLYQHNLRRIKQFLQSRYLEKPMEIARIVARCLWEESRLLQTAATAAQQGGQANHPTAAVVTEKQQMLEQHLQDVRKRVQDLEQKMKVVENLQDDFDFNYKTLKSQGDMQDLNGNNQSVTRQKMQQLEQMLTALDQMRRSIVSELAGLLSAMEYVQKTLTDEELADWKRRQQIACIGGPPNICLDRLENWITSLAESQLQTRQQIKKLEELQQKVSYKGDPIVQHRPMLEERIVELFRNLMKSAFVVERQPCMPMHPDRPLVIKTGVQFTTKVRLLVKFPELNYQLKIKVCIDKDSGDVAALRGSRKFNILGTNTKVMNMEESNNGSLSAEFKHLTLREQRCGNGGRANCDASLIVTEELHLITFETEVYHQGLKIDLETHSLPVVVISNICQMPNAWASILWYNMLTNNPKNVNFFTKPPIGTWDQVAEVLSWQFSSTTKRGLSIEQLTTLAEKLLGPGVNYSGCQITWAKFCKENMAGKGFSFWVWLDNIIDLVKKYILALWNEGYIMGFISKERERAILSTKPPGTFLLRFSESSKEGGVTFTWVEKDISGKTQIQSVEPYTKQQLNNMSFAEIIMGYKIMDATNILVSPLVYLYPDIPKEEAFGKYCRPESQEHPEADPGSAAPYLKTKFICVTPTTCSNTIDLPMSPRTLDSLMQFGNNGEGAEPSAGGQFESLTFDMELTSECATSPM
As to the kind of experiment: MSD-pSTAT-PBMC Assay (pSTAT3, IL-6 stimulated). It is filed as cell-based. To be noted: PBMC, compound 3 hrs, then 10 ng/mL IL-6 for 10 min; Table 115; read-out: STAT3. The procedure, abridged: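 Thawed human PBMC rested overnight in IMDM/10% FBS, then got compound for 3 hrs before a 10 min cytokine pulse: 1 ng/mL IL-4 for pSTAT6, 10 ng/mL IL-6 for pSTAT3. Lysates went to MSD sandwich capture on total STAT6 or STAT3 with phospho-specific detection. IC50 came from background-subtracted, DMSO-normalized signal.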
In the case of `CCCOC(=O)[C@H](C)NP(=O)(Cc1ccc2sc(C(=O)N[C@H]3CCC[C@H]4CC[C@@H](C(=O)N[C@H]5CN(C(C)=O)C[C@@H]5F)N4C3=O)cc2c1)Oc1ccccc1` (stereo partly drawn) [Compound 308, propyl (((2-(((3S,6S,9aS)-3-(((3S,4S)-1-acetyl-4-fluoropyrrolidin-3-yl)carbamoyl)-5-oxooctahydro-1H-pyrrolo[1,2-a]azepin-6-yl)carbamoyl)benzo [b]thiophen-5-yl)methyl)(phenoxy)phosphoryl)-L-alaninate], the IC50 is more than 3 µM.
With `CCCOC(=O)[C@H](C)NP(=O)(Cc1ccc2sc(C(=O)N[C@H]3CCC[C@H]4CC[C@@H](C(=O)N[C@H]5CN(C(C)=O)C[C@H]5F)N4C3=O)cc2c1)Oc1ccccc1` (stereo partly drawn) [Compound 309, propyl (((2-(((3S,6S,9aS)-3-(((3S,4R)-1-acetyl-4-fluoropyrrolidin-3-yl)carbamoyl)-5-oxooctahydro-1H-pyrrolo[1,2-a]azepin-6-yl)carbamoyl)benzo [b]thiophen-5-yl)methyl)(phenoxy)phosphoryl)-L-alaninate] the figure was more than 3 µM.
`CCCOC(=O)[C@@H]1CCCN1P(=O)(Cc1ccc2sc(C(=O)N[C@H]3CCC[C@H]4CC[C@@H](C(=O)N5CC(c6cccnc6)C5)N4C3=O)cc2c1)N1CCC[C@H]1C(=O)OCCC` [Compound 310, dipropyl (((2-(((3S,6S,9aS)-5-oxo-3-(3-(pyridin-3-yl)azetidine-1-carbonyl)octahydro-1H-pyrrolo[1,2-a]azepin-6-yl)carbamoyl)benzo [b]thiophen-5-yl)methyl)phosphoryl) (S)-di-L-prolinate]: the IC50 fell in the range of 0.1 to 1 µM.
The result for `CCCOC(=O)CC(C)NP(=O)(Cc1ccc2sc(C(=O)N[C@H]3CCC[C@H]4CC[C@@H](C(=O)N5CC(c6cccnc6)C5)N4C3=O)cc2c1)Oc1ccccc1` (stereo partly drawn) [Compound 311, propyl 3-((((2-(((3S,6S,9aS)-5-oxo-3-(3-(pyridin-3-yl)azetidine-1-carbonyl)octahydro-1H-pyrrolo[1,2-a]azepin-6-yl)carbamoyl)benzo [b]thiophen-5-yl)methyl)(phenoxy)phosphoryl)amino) butanoate] reads more than 3 µM; that for `CCCOC(=O)[C@H](C)NP(=O)(Oc1ccccc1)C(C)(F)c1ccc2sc(C(=O)N[C@H]3CCC[C@H]4CC[C@@H](C(=O)N5CC(c6cccnc6)C5)N4C3=O)cc2c1` (stereo partly drawn) [Compound 313, propyl ((1-fluoro-1-(2-(((3S,6S,9aS)-5-oxo-3-(3-(pyridin-3-yl)azetidine-1-carbonyl)octahydro-1H-pyrrolo[1,2-a]azepin-6-yl)carbamoyl)benzo [b]thiophen-5-yl)ethyl)(phenoxy)phosphoryl)-L-alaninate], 1 to 3 µM.
Take `CCCCOC(=O)[C@@H]1CC(F)(F)CN1P(=O)(Oc1ccccc1)C(F)(F)c1ccc2sc(C(=O)N[C@H]3CCC[C@H]4CC[C@@H](C(=O)N5CC(c6cccnc6)C5)N4C3=O)cc2c1` (stereo partly drawn) [Compound 323, butyl (2S)-1-((difluoro(2-(((3S,6S,9aS)-5-oxo-3-(3-(pyridin-3-yl)azetidine-1-carbonyl)octahydro-1H-pyrrolo[1,2-a]azepin-6-yl)carbamoyl)benzo [b]thiophen-5-yl)methyl)(phenoxy)phosphoryl)-4,4-difluoropyrrolidine-2-carboxylate]: the IC50 is more than 3 µM.
In the case of `CCOC(=O)[C@H](Cc1ccccc1)NP(=O)(Cc1ccc2sc(C(=O)N[C@H]3CCC[C@H]4CC[C@@H](C(=O)N5CC(c6cccnc6)C5)N4C3=O)cc2c1)Oc1ccccc1` (stereo partly drawn) [Compound 389, ethyl (((2-(((3S,6S,9aS)-5-oxo-3-(3-(pyridin-3-yl)azetidine-1-carbonyl)octahydro-1H-pyrrolo[1,2-a]azepin-6-yl)carbamoyl)benzo [b]thiophen-5-yl)methyl)(phenoxy)phosphoryl)-L-phenylalaninate], the IC50 lay in the range of 0.1 to 1 µM.
The result for `CC(C)C[C@H](NP(=O)(Cc1ccc2sc(C(=O)N[C@H]3CCC[C@H]4CC[C@@H](C(=O)N5CC(c6cccnc6)C5)N4C3=O)cc2c1)Oc1ccccc1)C(=O)OCc1ccccc1` (stereo partly drawn) [Compound 390, benzyl (((2-(((3S,6S,9aS)-5-oxo-3-(3-(pyridin-3-yl)azetidine-1-carbonyl)octahydro-1H-pyrrolo[1,2-a]azepin-6-yl)carbamoyl)benzo [b]thiophen-5-yl)methyl)(phenoxy)phosphoryl)-L-leucinate] reads 0.1 to 1 µM; that for `CC(C)OC(=O)[C@@H]1CCCN1P(=O)(Cc1ccc2sc(C(=O)N[C@H]3CCC[C@H]4CC[C@@H](C(=O)N5CC(c6cccnc6)C5)N4C3=O)cc2c1)Oc1ccccc1` (stereo partly drawn) [Compound 391, isopropyl (((2-(((3S,6S,9aS)-5-oxo-3-(3-(pyridin-3-yl)azetidine-1-carbonyl)octahydro-1H-pyrrolo[1,2-a]azepin-6-yl)carbamoyl)benzo [b]thiophen-5-yl)methyl)(phenoxy)phosphoryl)-L-prolinate], 1 to 3 µM.
`COC[C@H](NP(=O)(Cc1ccc2sc(C(=O)N[C@H]3CCC[C@H]4CC[C@@H](C(=O)N5CC(c6cccnc6)C5)N4C3=O)cc2c1)Oc1ccccc1)C(=O)OC(C)C` (stereo partly drawn) [Compound 392, isopropyl O-methyl-N-(((2-(((3S,6S,9aS)-5-oxo-3-(3-(pyridin-3-yl)azetidine-1-carbonyl)octahydro-1H-pyrrolo[1,2-a]azepin-6-yl)carbamoyl)benzo [b]thiophen-5-yl)methyl)(phenoxy)phosphoryl)-L-serinate]: the IC50 was in the range of 0.1 to 1 µM.
Take `COCCOC(=O)[C@H](C)NP(=O)(Cc1ccc2sc(C(=O)N[C@H]3CCC[C@H]4CC[C@@H](C(=O)N5CC(c6cccnc6)C5)N4C3=O)cc2c1)Oc1ccccc1` (stereo partly drawn) [Compound 393, 2-methoxyethyl (((2-(((3S,6S,9aS)-5-oxo-3-(3-(pyridin-3-yl)azetidine-1-carbonyl)octahydro-1H-pyrrolo[1,2-a]azepin-6-yl)carbamoyl)benzo [b]thiophen-5-yl)methyl)(phenoxy)phosphoryl)-L-alaninate]: the IC50 lay within 0.1 to 1 µM.
As for `C[C@H](NP(=O)(Cc1ccc2sc(C(=O)N[C@H]3CCC[C@H]4CC[C@@H](C(=O)N5CC(c6cccnc6)C5)N4C3=O)cc2c1)Oc1ccccc1)C(=O)OCc1ccccc1` (stereo partly drawn) [Compound 394, benzyl (((2-(((3S,6S,9aS)-5-oxo-3-(3-(pyridin-3-yl)azetidine-1-carbonyl)octahydro-1H-pyrrolo[1,2-a]azepin-6-yl)carbamoyl)benzo [b]thiophen-5-yl)methyl)(phenoxy)phosphoryl)-L-alaninate], the IC50 was less than 0.1 µM.
Turning to `CC(C)OC(=O)C(C)(C)NP(=O)(Cc1ccc2sc(C(=O)N[C@H]3CCC[C@H]4CC[C@@H](C(=O)N5CC(c6cccnc6)C5)N4C3=O)cc2c1)Oc1ccccc1` (stereo partly drawn) [Compound 395, isopropyl 2-methyl-2-((((2-(((3S,6S,9aS)-5-oxo-3-(3-(pyridin-3-yl)azetidine-1-carbonyl)octahydro-1H-pyrrolo[1,2-a]azepin-6-yl)carbamoyl)benzo [b]thiophen-5-yl)methyl)(phenoxy)phosphoryl)amino) propanoate], the IC50 was 0.1 to 1 µM.
The result for `O=C(N[C@H]1CCC[C@H]2CC[C@@H](C(=O)N3CC(c4cccnc4)C3)N2C1=O)c1cc2cc(CP(=O)(N[C@H]3CCOC3=O)Oc3ccccc3)ccc2s1` (stereo partly drawn) [Compound 398, phenyl P-((2-(((3S,6S,9aS)-5-oxo-3-(3-(pyridin-3-yl)azetidine-1-carbonyl)octahydro-1H-pyrrolo[1,2-a]azepin-6-yl)carbamoyl)benzo [b]thiophen-5-yl)methyl)-N-((S)-2-oxotetrahydrofuran-3-yl)phosphonamidate] reads more than 3 µM; that for `CC(C)OC(=O)[C@H](C)NP(=O)(Cc1ccc2sc(C(=O)N[C@H]3CCC[C@H]4CC[C@@H](C(=O)N5CC(c6cccnc6)C5)N4C3=O)cc2c1)N[C@@H](C)C(=O)OC(C)C` [Compound 399, diisopropyl 2,2′-((((2-(((3S,6S,9aS)-5-oxo-3-(3-(pyridin-3-yl)azetidine-1-carbonyl)octahydro-1H-pyrrolo[1,2-a]azepin-6-yl)carbamoyl)benzo [b]thiophen-5-yl)methyl)phosphoryl)bis(azanediyl)) (2S,2′S)-dipropionate], 1 to 3 µM; that for `CCCOC(=O)[C@H](C)NP(=O)(Oc1ccccc1)C(F)(F)c1ccc2sc(C(=O)N[C@H]3CCC[C@H]4CC[C@@H](C(=O)N5CC(c6cccnc6)C5)N4C3=O)cc2c1` (stereo partly drawn) [Compound 400, propyl ((difluoro(2-(((3S,6S,9aS)-5-oxo-3-(3-(pyridin-3-yl)azetidine-1-carbonyl)octahydro-1H-pyrrolo[1,2-a]azepin-6-yl)carbamoyl)benzo [b]thiophen-5-yl)methyl)(phenoxy)phosphoryl)-L-alaninate], 0.1 to 1 µM.
The result for `O=C(N[C@H]1CCC[C@H]2CC[C@@H](C(=O)N3CC(c4cccnc4)C3)N2C1=O)c1cc2cc(CP(=O)(N[C@@H](CCc3ccccc3)C(=O)OCc3ccccc3)Oc3ccccc3)ccc2s1` (stereo partly drawn) [Compound 401, benzyl (2S)-2-((((2-(((3S,6S,9aS)-5-oxo-3-(3-(pyridin-3-yl)azetidine-1-carbonyl)octahydro-1H-pyrrolo[1,2-a]azepin-6-yl)carbamoyl)benzo [b]thiophen-5-yl)methyl)(phenoxy)phosphoryl)amino)-4-phenylbutanoate] reads more than 3 µM.
As to `CCCCOC(=O)[C@H](C)NP(=O)(Cc1ccc2sc(C(=O)N[C@H]3CCC[C@H]4CC[C@@H](C(=O)N5CC(c6cccnc6)C5)N4C3=O)cc2c1)N[C@@H](C)C(=O)OCCCC` [Compound 420, dibutyl 2,2′-((((2-(((3S,6S,9aS)-5-oxo-3-(3-(pyridin-3-yl)azetidine-1-carbonyl)octahydro-1H-pyrrolo[1,2-a]azepin-6-yl)carbamoyl)benzo [b]thiophen-5-yl)methyl)phosphoryl)bis(azanediyl)) (2S,2′S)-dipropionate], the IC50 was in the range of 0.1 to 1 µM.
